In patent US12707555B2, “Low-temperature dielectric barrier discharge devices” (The Trustees of Princeton University, priority 2022, dated 2026):

Legend:
bacterial load = conditions: cited from earlier work
[1] = tested on: E. coli AMS 198 (ATCC-11229); assay: Quantitative disinfection of bacteria dried on glass coverslips (CFU count, log reduction); format: cell-based; conditions: 3% H2O2 alone, flex-DBD off; R=0.947
Experimental: (§1) To quantify disinfection, bacteria (E. coli 10-beta, Standard E. coli AMS 198 or OP50-GFP) were inoculated on glass coverslips (25 mm diameter). Four droplets of 5 μl each (20 μl) of the bacterial culture (starting concentration 10^8 CFU/ml) were placed onto each coverslip and allowed to dry for approximately 40 min. The slides with dry bacterial culture were then placed onto the flex-DBD with the inoculated side directly in contact with the discharge. The coverslips were treated for 10, 30, 90, and 270 s. At the end of the treatment time, the treated coverslip was placed in a centrifuge tube with 7.5 ml LB, enough to cover the coverslip. The tubes were vortexed on a medium setting for 20 s to recover the bacteria from the treated surface but not damage the cell membrane. The resulting bacterial suspension was spread on LB-agar plates and incubated for 24 h. Cultures were then counted and the number used to calculate the logarithmic reductions of bacterial concentration. […] Pieces of material were disinfected by soaking for 5 min in a 70% solution of isopropyl alcohol then dried thoroughly for at least 30 min. […] An inoculated glass coverslip was placed on top of the solution with the bacteria in contact with the solution. […] Statistical significance between pairs of treatments was evaluated using repeated measures ANOVA.

E. coli 10-beta = assay: as above; format: cell-based; conditions: 3% H2O2 alone, flex-DBD off; R=0.97
Experimental: as §1

E. coli = assay: Disinfection of inoculated coverslips with flex-DBD in conjunction with 3% H2O2 solution (strain not stated at the result); format: cell-based; conditions: H2O2 with only UV radiation from flex-DBD (UV filter); after the first 30 s
Experimental: Pieces of material were disinfected by soaking for 5 min in a 70% solution of isopropyl alcohol then dried thoroughly for at least 30 min. […] An inoculated glass coverslip was placed on top of the solution with the bacteria in contact with the solution. At the end of each treatment, the coverslip and the cloth were dropped into a centrifuge tube with 7.5 ml of LB solution. The same recovery and plating procedure was used in all experiments. […] To block all the output from the plasma except light, a thin film filter transparent down to 190 nm was placed between the DBD and H2O2. […] When possible, ImageJ (1.53c) software was used to count CFUs, otherwise the counting was done visually. […] All the experiments were performed in triplicates of samples and plates. Statistical significance between pairs of treatments was evaluated using repeated measures ANOVA.

## OO [H2O2, hydrogen peroxide]
Bacterial load; H2O2 droplets added into a corona discharge
  reduction: 6 log10
Bacterial load; H2O2 vapor added to the plasma effluent
  reduction in the bacterial load: greater than 6 log10
[1]
  time for 1 log10 reduction, D: 135±5 s
E. coli 10-beta
  time for 1 log10 reduction, D: 139±5 s
E. coli
  time for 1 log10 reduction, D: > 250 s
